Measurements from ChEMBL document CHEMBL1127363, “Structure-activity relationship studies of N-sulfonyl analogs of cocaine: role of ionic interaction in cocaine binding” (J Med Chem, 1994).

Columns and labels:
[1] = biological target: T1, Sodium-dependent dopamine transporter (Rattus norvegicus, UniProt P23977); experiment: Binding affinity was tested by measuring its ability to displace [3H]-mazindol binding against dopamine transporter (DAT) of rat striatal membranes
Rattus norvegicus [2] = organism: Rattus norvegicus; experiment: Compound was tested to inhibit high affinity uptake of [3H]- -dopamine into striatal nerve endings (synaptosomes); format: functional, Brain
[3] = biological target: T1, Sodium-dependent dopamine transporter; experiment: Binding affinity was tested by measuring its ability to displace [3H]mazindol binding against dopamine transporter (DAT) of rat striatal membranes
Rattus norvegicus [4] = organism: Rattus norvegicus; experiment: Compound was tested to inhibit high affinity uptake of [3H]dopamine into striatal nerve endings (synaptosomes); format: functional, Brain
[5] = biological target: Sodium-dependent dopamine transporter (Rattus norvegicus) (UniProt P23977); experiment: Inhibition of [3H]mazindol binding to dopamine transporter (DAT) of rat striatal membranes at 100 uM; format: cell membranes; conditions: Membrane
Sodium-dependent dopamine transporter (Rattus norvegicus), sequence (P23977 whole entry): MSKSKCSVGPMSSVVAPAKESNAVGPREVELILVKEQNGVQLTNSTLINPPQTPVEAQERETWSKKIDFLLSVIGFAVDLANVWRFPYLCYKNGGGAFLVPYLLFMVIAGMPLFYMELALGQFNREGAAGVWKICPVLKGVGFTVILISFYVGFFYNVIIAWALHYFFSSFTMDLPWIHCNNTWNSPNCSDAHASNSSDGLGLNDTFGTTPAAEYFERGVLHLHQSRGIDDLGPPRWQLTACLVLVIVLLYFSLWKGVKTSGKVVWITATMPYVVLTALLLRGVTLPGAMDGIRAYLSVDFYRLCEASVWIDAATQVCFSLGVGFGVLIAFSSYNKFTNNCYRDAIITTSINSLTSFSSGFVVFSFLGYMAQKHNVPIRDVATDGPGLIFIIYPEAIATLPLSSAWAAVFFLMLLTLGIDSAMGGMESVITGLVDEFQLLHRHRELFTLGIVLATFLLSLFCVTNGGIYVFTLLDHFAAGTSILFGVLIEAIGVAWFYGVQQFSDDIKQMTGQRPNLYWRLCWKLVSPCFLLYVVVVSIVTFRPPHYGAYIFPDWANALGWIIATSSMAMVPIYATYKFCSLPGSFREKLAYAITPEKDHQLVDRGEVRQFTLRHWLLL

Rattus norvegicus [6] = organism: Rattus norvegicus; experiment: Inhibition of high affinity uptake of [3H]- -dopamine into striatal nerve endings (synaptosomes) at 300 uM; format: functional; conditions: Brain
Rattus norvegicus [7] = organism: Rattus norvegicus; experiment: Compound was tested to inhibit high affinity uptake of [3H]- -Dopamine into striatal nerve endings (synaptosomes); format: functional, Brain

T1 sequence (P23977 whole entry): as above

COC(=O)[C@@H]1C2CCC(C[C@@H]1OC(=O)c1ccccc1)N2S(=O)(=O)C(F)(F)F (some centres undefined)
Ki [1]: 0.33 µM
Ki (Rattus norvegicus [2]): 0.76 µM

COC(=O)[C@@H]1C2CCC(C[C@@H]1OC(=O)c1ccccc1)N2S(C)(=O)=O (some centres undefined)
Ki [3]: 1.29 µM
Ki (Rattus norvegicus [4]): 1.97 µM

COC(=O)[C@@H]1C2CCC(C[C@@H]1OC(=O)c1ccccc1)N2S(=O)(=O)c1ccc(OC)cc1 (some centres undefined)
Ki [1]: 6.82 µM
Ki (Rattus norvegicus [2]): 16.4 µM

COC(=O)[C@@H]1C2CCC(C[C@@H]1OC(=O)c1ccccc1)N2S(=O)(=O)c1ccc([N+](=O)[O-])cc1 (some centres undefined)
Ki [1]: 5.72 µM
inhibition [5]: 80%
inhibition (Rattus norvegicus [6]): 72%
Ki (Rattus norvegicus [2]): 18.8 µM

COC(=O)[C@@H]1C2CC[C@@H](C[C@@H]1OC(=O)c1ccccc1)N2S(=O)(=O)N=C=O
Ki [3]: 0.12 µM
Ki (Rattus norvegicus [7]): 0.16 µM

COC(=O)[C@@H]1C2CCC(C[C@@H]1OC(=O)c1ccccc1)N2S(=O)(=O)c1ccccc1 (some centres undefined)
Ki [1]: 20.8 µM
Ki (Rattus norvegicus [2]): 61 µM
